Source: patent publication US7915291B2, “Hepatitis C virus inhibitors” (Bristol-Myers Squibb Company, priority 2002, dated 2011)
Read-outs that look alike come from different tables or passages of the source.

Key:
[1] = target: HCV NS3/4A protease complex, BMS strain (UniProt P27958, C1454S/C1711G, species not given/STRAIN_BMS); assay: Recombinant HCV NS3/4A protease complex FRET peptide assay (BMS strain); type: biochemical, HCV genotype 1a
Outline: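 Recombinant BMS-strain NS3/4A (His-tagged NS4A with three-lysine tail, E. coli) at 2-3 nM preincubated 1 min with compound, then 2 μM ester-linked NS4A/NS4B-based FRET peptide added. Fluorescence followed in real time ~15 min at 25° C. Percent inhibition from slope of linear fluorescence change versus no-compound control.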

[2] = tested on: HCV replicon in Huh7 cells; assay: HCV replicon cell-based assay; set-up: species or system HCV strain 1B; conditions: HCV replicon, Huh7 cells, read-out: EC50 range
[3] = NS3/4A BMS strain; read-out: IC50 range
[4] = read-out: IC50 range; NS3/4A BMS strain

| Structure (SMILES) | IC50 [1, 3] [nM] | EC50 ([2]; Hepatitis C virus, Huh-7) [nM] | EC50 [2] [nM] | IC50 [1, 4] [nM] |
| --- | --- | --- | --- | --- |
| C=CC1C[C@]1(NC(=O)[C@@H]1C[C@@H](Oc2nccc3c4c(c(SC)cc23)OCO4)CN1C(=O)[C@@H](NC(=O)OC(C)(C)C)C(C)(C)C)C(=O)NS(=O)(=O)C1CC1 (stereo partly drawn) [Compound 213, BOCNH-P3(L-t-BuGly)-P2[(4R)-(4-methylthio-1,3-dioxa-7-aza-cyclopenta[a]naphthalen-6-yloxy)-S-proline]-P1(1R,2S VinylAcca)-CONHSO2Cyclopropane] | < 100 | < 100 |  |  |
| C=C[C@@H]1C[C@]1(NC(=O)[C@@H]1C[C@@H](Oc2ccnc3cc(Cl)ccc23)CN1C(=O)[C@@H](NC(=O)OC1CCCC1)C(C)(C)C)C(=O)NS(=O)(=O)C1CC1 [Compound 372] | < 100 | < 100 |  |  |
| C=C[C@@H]1C[C@]1(NC(=O)[C@@H]1C[C@@H](Oc2nc(-c3nccs3)cc3cc(OC)ccc23)CN1C(=O)[C@@H](NC(=O)OC(C)(C)C)C(C)(C)C)C(=O)NS(=O)(=O)C1CC1 [Compound 37] | < 100 | < 100 |  |  |
| C=CC1C[C@]1(NC(=O)[C@@H]1C[C@@H](Oc2nnc(Cl)c3ccccc23)CN1C(=O)[C@@H](NC(=O)OC(C)(C)C)C(C)(C)C)C(=O)NS(=O)(=O)C1CC1 (stereo partly drawn) [Compound 195, BOCNH-P3(L-tert-BuGly)-P2[(4R)-(4-chloro phthalazine-1-oxo)-S -proline]-P1(1R,2S Vinyl Acca)-CONHSO2-Cyclopropane] | < 100 | < 100 |  |  |
| C=C[C@@H]1C[C@]1(NC(=O)[C@@H]1C[C@@H](Oc2nccc3cc(OC)ccc23)CN1C(=O)[C@@H](NC(=O)N[C@@H](C(=O)OC)C(C)C)C(C)(C)C)C(=O)NS(=O)(=O)C1CC1 [Compound 142] | < 100 | < 100 |  |  |
| C=C[C@@H]1C[C@]1(NC(=O)[C@@H]1C[C@@H](Oc2ccnc(-c3ccsc3)c2)CN1C(=O)[C@@H](NC(=O)OC1CCCC1)C(C)(C)C)C(=O)NS(=O)(=O)C1CC1 [Compound 430] | < 100 | 100 to 1000 |  |  |
| C=C[C@@H]1C[C@]1(NC(=O)[C@@H]1C[C@@H](Oc2nccc3ccccc23)CN1C(=O)[C@@H](NC(=O)OCC(C)(C)C)C(C)(C)C)C(=O)NS(=O)(=O)C1CC1 [Compound 125] | < 100 | < 100 |  |  |
| C=CC1CC1(NC(=O)[C@@H]1C[C@@H](Oc2cc(C(F)(F)F)nc3nc(C)ccc23)CN1C(=O)[C@@H](NC(=O)OC(C)(C)C)C(C)(C)C)C(=O)NS(=O)(=O)C1CC1 (stereo partly drawn) [Compound 8] | 100 to 1000 | 1000 to 10000 |  |  |
| C=C[C@@H]1C[C@]1(NC(=O)[C@@H]1C[C@@H](Oc2nc(-c3ccoc3)c(OC)c3ccccc23)CN1C(=O)[C@@H](NC(=O)OC(C)(C)C)C(C)(C)C)C(=O)NS(=O)(=O)C1CC1 [Compound 229, BOCNH-P3(L-t-BuGly)-P2[(4R)-(3-furan-3-yl-4methoxy -isoquinolin-1-oxo)-S-proline]-P1(1R,2S VinylAcca)-CONHSO2Cyclopropane] | < 100 |  | < 100 |  |
| C=CC1CC1(NC(=O)[C@@H]1C[C@@H](OCc2ccc3ccccc3c2)CN1C(=O)[C@@H](NC(=O)OC(C)(C)C)C(C)(C)C)C(=O)NS(C)(=O)=O (stereo partly drawn) [Compound 454] | 100 to 1000 | 1000 to 10000 |  |  |
| C=CC1C[C@]1(NC(=O)[C@@H]1C[C@@H](Oc2nccc3cc(OC(C)C)ccc23)CN1C(=O)[C@@H](NC(=O)OC(C)(C)C)C(C)(C)C)C(=O)NS(=O)(=O)C1CC1 (stereo partly drawn) [Compound 192, BOCNH-P3(L-tert-BuGly)-P2[(4R)-(6-isopropoxy isoquinolin-1-oxo)-S-proline]-P1(1R,2S Vinyl Acca)-CONHSO2-Cyclopropane] | < 100 | < 100 |  |  |
| C=CC1C[C@]1(NC(=O)[C@@H]1C[C@@H](Oc2cc(C(F)(F)F)nc3c(Cl)cccc23)CN1C(=O)[C@@H](NC(=O)OC(C)(C)C)C(C)(C)C)C(=O)NS(=O)(=O)C1CC1 (stereo partly drawn) [Compound 183, BOCNH-P3(L-tert-BuGly)-P2[(4R)-(2-trifluoromethyl, 8-chloro quinolin-4-oxo)-S-proline]-P1(1R,2S Vinyl Acca)-CONHSO2-Cyclopropane] | < 100 | < 100 |  |  |
| C=C[C@@H]1CC1(NC(=O)[C@@H]1CC(Oc2nccc3cc(OC)ccc23)CN1C(=O)[C@@H](NC(=O)OC1(C)CCCC1)C(C)(C)C)C(=O)NS(=O)(=O)C1CC1 (stereo partly drawn) [Compound 69] |  | < 100 |  | < 100 |
| C=CC1C[C@]1(NC(=O)[C@@H]1C[C@@H](Oc2nccc3c(SCCC)c(OCC)ccc23)CN1C(=O)[C@@H](NC(=O)OC(C)(C)C)C(C)(C)C)C(=O)NS(=O)(=O)C1CC1 (stereo partly drawn) [Compound 206, BOCNH-P3(L-t-BuGly)-P2[(4R)-(6-ethoxy-5propylthio -isoquinoline-1-oxo)-S-proline]-P1(1R,2S VinylAcca)-CONHSO2Cyclopropane] | < 100 | < 100 |  |  |
| C=C[C@@H]1C[C@]1(NC(=O)[C@@H]1C[C@@H](Oc2nccc3cc(OC)ccc23)CN1C(=O)[C@@H](NC(=O)N[C@H](C(=O)OC(C)(C)C)C(C)C)C(C)(C)C)C(=O)NS(=O)(=O)C1CC1 [Compound 152] | < 100 | < 100 |  |  |
| C=C[C@@H]1C[C@]1(NC(=O)[C@@H]1CC(Oc2nccc3cc(OC)ccc23)CN1C(=O)[C@@H](NC(N)=O)C(C)(C)C)C(=O)NS(=O)(=O)C1CC1 (stereo partly drawn) [Compound 80] | < 100 | 1000 to 10000 |  |  |
| C=C[C@@H]1C[C@]1(NC(=O)[C@@H]1C[C@@H](Oc2nccc3cc(OC)ccc23)CN1C(=O)[C@@H](NC(=O)OC(C)(C)CC)[C@H](C)OC)C(=O)NS(=O)(=O)C1CC1 [Compound 105] |  | < 100 |  | < 100 |
| C=C[C@@H]1C[C@]1(NC(=O)[C@@H]1C[C@@H](Oc2cc(C)nc(-c3ccccc3)c2)CN1C(=O)[C@@H](NC(=O)OC(C)(C)C)C(C)(C)C)C(=O)NS(=O)(=O)C1CC1 [Compound 437] | < 100 | 100 to 1000 |  |  |
| C=C[C@@H]1C[C@]1(NC(=O)[C@@H]1C[C@@H](Oc2cccc(-c3ccoc3)n2)CN1C(=O)[C@@H](NC(=O)OC(C)(C)C)C(C)(C)C)C(=O)NS(=O)(=O)C1CC1 [Compound 435] | < 100 | 100 to 1000 |  |  |
| C=C[C@@H]1C[C@]1(NC(=O)[C@@H]1C[C@@H](Oc2cc(-c3ccccc3)nc3c(C)noc23)CN1C(=O)[C@@H](NC(=O)OC(C)(C)C)C(C)(C)C)C(=O)NS(=O)(=O)C1CC1 [Compound 1] | < 100 | < 100 |  |  |
| C=C[C@@H]1C[C@]1(NC(=O)[C@@H]1C[C@@H](Oc2nc(-c3ccoc3)cc3cc(OC)ccc23)CN1C(=O)[C@@H](NC(=O)OC(C)(C)C)C(C)(C)C)C(=O)NS(=O)(=O)C1CC1 [Compound 41] | < 100 | < 100 |  |  |
| C=C[C@@H]1C[C@]1(NC(=O)[C@@H]1CC(Oc2nccc3cc(OC)ccc23)CN1C(=O)[C@@H](NC(=O)N(C)OC)C(C)(C)C)C(=O)NS(=O)(=O)C1CC1 (stereo partly drawn) [Compound 78] | < 100 | 1000 to 10000 |  |  |
| C=CC1C[C@]1(NC(=O)[C@@H]1C[C@@H](Oc2noc3cc(OC)ccc23)CN1C(=O)[C@@H](NC(=O)OC(C)(C)C)C(C)(C)C)C(=O)NS(=O)(=O)C1CC1 (stereo partly drawn) [Compound 323] | < 100 | 100 to 1000 |  |  |
| C=CC1CC1(NC(=O)[C@@H]1C[C@@H](Oc2cc(CC)nc3c(C)noc23)CN1C(=O)[C@@H](NC(=O)OC(C)(C)C)C(C)(C)C)C(=O)NS(=O)(=O)C1CC1 (stereo partly drawn) [Compound 9] | < 100 | 100 to 1000 |  |  |
| C=C[C@@H]1C[C@]1(NC(=O)[C@@H]1C[C@@H](Oc2nc(OC)cc3ccccc23)CN1C(=O)[C@@H](NC(=O)OC(C)(C)C)C(C)(C)C)C(=O)NS(=O)(=O)C1CC1 [Compound 35] | < 100 | < 100 |  |  |
| C=CC1C[C@]1(NC(=O)[C@@H]1C[C@@H](Oc2nc(-c3csc(N(CC)CC)n3)cc3cc(OC)ccc23)CN1C(=O)[C@@H](NC(=O)OC(C)(C)C)C(C)(C)C)C(=O)NS(=O)(=O)C1CC1 (stereo partly drawn) [Compound 321] | < 100 | 100 to 1000 |  |  |
| C=C[C@@H]1C[C@]1(NC(=O)C1C[C@@H](Oc2nc(-c3ccccc3)nc3ccc(OC)cc23)CN1C(=O)[C@@H](N)C(C)(C)C)C(=O)NS(=O)(=O)C1CC1 (stereo partly drawn) [Compound 50] | 100 to 1000 | 1000 to 10000 |  |  |
| C=C[C@@H]1C[C@]1(NC(=O)[C@@H]1C[C@@H](Oc2ccnc(Br)c2)CN1C(=O)[C@@H](NC(=O)OC1CCCC1)C(C)(C)C)C(=O)NS(=O)(=O)C1CC1 [Compound 425] | 100 to 1000 | 1000 to 10000 |  |  |
| C=C[C@@H]1C[C@]1(NC(=O)[C@@H]1CC(Oc2nccc3cc(OC)ccc23)CN1C(=O)[C@@H](NC(=O)OC(C)(C)C)[C@@H](C)O)C(=O)NS(=O)(=O)C1CC1 (stereo partly drawn) [Compound 91] | < 100 | 100 to 1000 |  |  |
| C=C[C@@H]1C[C@]1(NC(=O)[C@@H]1C[C@@H](Oc2cc(C3CC3)nc3cc(OC)ccc23)CN1C(=O)[C@@H](NC(=O)OC(C)(C)C)C(C)(C)C)C(=O)NS(=O)(=O)C1CC1 [Compound 373] | < 100 | < 100 |  |  |
